Tested on: vesperlysine-like and pentosidine-like AGEs from albumin glycation
Assay: Inhibition of AGE formation from albumin glycation (BSA + D-ribose, fluorescence)
Format: biochemical, bovine
Description: Following solutions were prepared for the assay: Reagent A: Phosphate buffer pH 7.0: 0.03 M KH2PO4 and 0.03 M K2HPO4 in ultrapure water (Millipore® Synergy® UV); Reagent B: 1.3 mg/mL aminoguanidine hydrochloride in phosphate buffer; Reagent C: 32 mg/mL Rosamox-Z in phosphate buffer; Reagent D: 30 mg/mL Zemea® Propanediol in phosphate buffer; Reagent E: 30 mg/mL BSA in phosphate buffer; Reagent F: 1.5 M D-ribose in phosphate buffer.
All the diluted samples (Sample B1-B5) were used for the AGE reaction.
Samples C1-C5 were diluted from the sample stock (reagent C) solution. Samples C6-C9 were diluted from Sample C5. All the diluted samples (Sample C1-C9) were used for the AGE reaction. Test samples D were diluted the same way as test samples C.
(Following Sero, L. et al. (2013) Tuning a 96-Well Microtiter Plate Fluorescence-Based Assay to Identify AGE Inhibitors in Crude Plant Extracts. Molecules. 18, 14320-14339.) A 96-well plate was prepared as follows (each sample was prepared in triplicate): Blank wells—50 μL BSA stock (reagent E) solution and 100 μL phosphate buffer (reagent A); Negative control wells—50 μL BSA stock (reagent E) and 50 μL diluent (Reagent A) to three empty wells; Positive control wells—50 μL BSA stock (reagent E) and 50 μL Aminoguanidine hydrochloride samples (Sample B1-B5); All treatments—50 μL BSA stock (reagent E) and 50 μL treatments (Sample C1-C9 and D1-D9); 50 μL D-ribose solutions (Reagent F) were added to every well except the blank wells.
The plates were read for fluorescence at λexc 370 nm λem 440 nm for versperlysines-like AGEs and λexc 335 nm λem 385 nm for pentosidine like AGEs. The plate was wrapped with aluminum foil to avoid light exposure and incubated at 37° C. and read again after 24 hours.
% inhibition was calculated as ((control 24 hours−control 0 hours)−(treatment 24 hours−treatment 0 hours))/(control 24 hours−control 0 hours).
FIG. 10 is a chart of the inhibition effect of Rosamox-Z on the formation of vesperlysine-like and pentosidine-like AGEs from albumin glycation. […]

Structure (SMILES)	inhibition effect for pentosidine-like AGEs (0-15 mg/mL, λexc 335 nm λem 385 nm, 24 h at 37° C.)	promoting effect for vesperlysines-like AGEs (0-15 mg/mL, λexc 370 nm λem 440 nm, 24 h at 37° C.)	predicted 1050 for these reactions (worked out from the Rosamox-Z value and 4% carnosic acid content) [mg/mL]
[2H]C([2H])(O)C([2H])([2H])C([2H])([2H])O [Zemea® Propanediol, Propanediol]	around 10%	around 5%	
CC(C)c1cc2c(c(O)c1O)[C@@]1(C(=O)O)CCCC(C)(C)[C@@H]1CC2 [carnosic acid]			0.4 to 0.6
